The text below walks through data of patent publication US7928206B2 (priority 2002, dated 2011).

Where two headings read alike, the source gives them in different places. Some results are limits rather than exact numbers.

Data set [1] concerns the target rHSV1-TK, human Herpes simplex virus type 1 thymidine kinase (Human alphaherpesvirus 1 strain 17, UniProt P0DTH5). In words: Kinetic constants of purified recombinant thymidine kinase (rHSV1-TK). It counts as biochemical. As to conditions: substrate AZT. The method, then: (§1) Transformed KY895 were grown to an OD600 nm of 0.5-06 in LB/Ampicillin (100 μg/ml) medium at 37° C. and protein expression was induced by addition of IPTG to make 100 μM. The cells were further grown for 4 h at 25° C. and subsequently harvested by centrifugation.

For data set [2], the system named is glioblastoma U-87 MG cells transduced with pLCXSN (retroviral vector alone). In words: cells. As to conditions: Homo sapiens, 120 h, 5 days of drug exposure.
The target of data set [3] is T1, rAT-TK1a, Arabidopsis thaliana thymidine kinase AT-TK1a, recombinant wild type, SEQ ID NO: 9 (Arabidopsis thaliana, UniProt Q9S750). In words: Kinetic constants of purified recombinant thymidine kinase (rAT-TK1a). It counts as biochemical, thale cress (Arabidopsis thaliana). The note with it: substrate AZT. On the procedure: as §1
The subject of data set [4] is glioblastoma U-87 MG cells transduced with PZG69: TomTK1 (tomato TK1, SEQ ID NO: 4). The experiment in a line: cells. As to conditions: Homo sapiens, 120 h, 5 days of drug exposure. On the procedure:
(§2) Arabidopsis constructs based on AT-TK1a were cut with BamHI/XhoI, and tomato PCR fragments were cut with BglII/XhoI, and cloned into the BglII-XhoI site of plasmid vector pLCXSN, which is a retroviral transfer vector derived from pLXSN (Clontech, cat# K1060-B) by insertion of the CMV promoter upstream of the polylinker.
(§3) Each experiment was performed in four replicates.

Another data set deals with Glioblastoma U-87 MG. The experiment in a line: Cell proliferation assay (XTT), sensitivity to AZT of transduced cells. The note with it: Homo sapiens, parental U-87 MG, construct None. It counts as cell-based. The method, then:
293T packaging cells (ATTC CRL-11268) were cultured at 37° C. in OPTIMEM 1 medium (Life Technologies, Inc.). The constructed pLCXSN plasmid vector was transfected into the packaging cells using LipofectAMINE PLUS (Life Technology Inc.) according to the protocol provided by the supplier. The medium from the transfected cells was collected 48 hours after transfection, filtered through a […] filter, pelleted by ultracentrifugation (50,000×g, 90 minutes at 4° C.) and dissolved in TEN buffer (100 mM NaCl, 10 mM Tris pH 7.5, 1 mM EDTA).
The virus-containing buffer was subsequently used to transduce the cancer cell lines with MOI of 5.
as §3
For orientation: Tetrazolium assays rely on reduction of a dye to a coloured formazan, in cell work by metabolically active cells.

Data set [5] has as its target T2, rAT-ΔN45TK1b, Arabidopsis thaliana thymidine kinase AT-TK1b (SEQ ID NO: 13) with N-terminal deletion of 45 amino acids (Arabidopsis thaliana, UniProt F4KBF5).
T2 sequence (F4KBF5 51-282): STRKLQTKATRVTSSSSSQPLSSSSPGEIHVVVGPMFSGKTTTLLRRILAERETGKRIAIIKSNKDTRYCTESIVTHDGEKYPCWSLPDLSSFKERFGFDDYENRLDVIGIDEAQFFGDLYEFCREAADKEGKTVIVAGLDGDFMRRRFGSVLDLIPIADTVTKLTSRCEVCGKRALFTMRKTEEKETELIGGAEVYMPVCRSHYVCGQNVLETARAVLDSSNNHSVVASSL
In words: Kinetic constants of purified recombinant thymidine kinase (rAT-ΔN45TK1b). It counts as biochemical, thale cress (Arabidopsis thaliana). The note with it: substrate AZT. The method, then: An N-terminal deletion of 45 amino acids was achieved by using the primers
The resulting plasmid was named pGEX-2T-AT-ΔN45TK1b (P663).
as §1

The target of data set [6] is rTOM-TK1, tomato (Lycopersicum esculentum) thymidine kinase, recombinant wild type, SEQ ID NO: 4 (Solanum lycopersicum, UniProt Q71F77). It counts as biochemical. As to conditions: substrate AZT. The method, then: as §1
The subject of data set [7] is glioblastoma U-87 MG cells transduced with PZG53: AtTK1 (AT-TK1a, Arabidopsis thaliana, SEQ ID NO: 9). The experiment in a line: Cell proliferation (XTT), sensitivity to AZT. In kind it is cell-based. The note with it: Homo sapiens, 120 h, 5 days of drug exposure. The method, then: as §2, §3
The nature of data set [8]: Cell proliferation (XTT), sensitivity to AZT. It counts as cell-based. As to conditions: Homo sapiens, U-87 MG, 120 h, 5 days of drug exposure. The method, then: as §2, §3
Data set [9] has as its system glioblastoma U-87 MG cells transduced with HSV1-TK (human Herpes simplex virus type 1 thymidine kinase). In words: Cell proliferation (XTT), sensitivity to AZT. As to conditions: 120 h, 5 days of drug exposure. In kind it is cell-based. The method, then:
as §3

Data set [10] concerns the target T1, rAT-TK1a, Arabidopsis thaliana thymidine kinase AT-TK1a, recombinant wild type, SEQ ID NO: 9. As to conditions: substrate Thd, data from Le Breton C, B. Sc. Report 2002, cited from earlier work.
Data set [11] addresses T2, rAT-ΔN45TK1b, Arabidopsis thaliana thymidine kinase AT-TK1b (SEQ ID NO: 13) with N-terminal deletion of 45 amino acids. The note with it: substrate Thd; data from Le Breton C, B. Sc. Report 2002; cited from earlier work.
Data set [12] can be described thus: AZT monophosphate kinase activity. It counts as biochemical. As to conditions: 30 mU enzyme, 100 μM 3H-labelled substrate. On the procedure:
(§4) 5 μl, of this mixture were plated on polyethylenimine-cellulose plates, which were developed ascending in 0.5 M […]. The spots with the nucleosides and nucleotides were identified under UV light and cut out.
The radioactivity in the spots was extracted with 0.2 M KCl in 0.1 M HCl, and determined by liquid scintillation counting. 1 pmol radioactive nucleoside/tide counts 850 cpm. […]

Data set [13] can be described thus: dTMP kinase activity (monophosphate to diphosphate). It counts as biochemical. As to conditions: 30 mU enzyme, 100 μM 3H-labelled substrate, 0 to 120 minutes. On the procedure: as §4
The radioactivity in the spots was extracted with 0.2 M KCl in 0.1 M HCl, and determined by liquid scintillation counting. 1 pmol radioactive nucleoside/tide counts 850 cpm.
The cpm obtained at the indicated times (15, 30, 60, 90 and 120 minutes, respectively) are determined in the TDP spots derived from 2.5 μl of the reaction mixture.

Data set [14] in a line: Kinetic constants of purified recombinant TK, substrate AZT. As to conditions: from Tables 6 and 7.
Setting [15] is: transient polyclonal cell lines.

For orientation: Km means the concentration of substrate that gives half-maximal velocity. Usually IC50 stands for the point on the concentration scale where inhibition reaches its midpoint.

rHSV1-TK, human Herpes simplex virus type 1 thymidine kinase, sequence (P0DTH5 whole entry): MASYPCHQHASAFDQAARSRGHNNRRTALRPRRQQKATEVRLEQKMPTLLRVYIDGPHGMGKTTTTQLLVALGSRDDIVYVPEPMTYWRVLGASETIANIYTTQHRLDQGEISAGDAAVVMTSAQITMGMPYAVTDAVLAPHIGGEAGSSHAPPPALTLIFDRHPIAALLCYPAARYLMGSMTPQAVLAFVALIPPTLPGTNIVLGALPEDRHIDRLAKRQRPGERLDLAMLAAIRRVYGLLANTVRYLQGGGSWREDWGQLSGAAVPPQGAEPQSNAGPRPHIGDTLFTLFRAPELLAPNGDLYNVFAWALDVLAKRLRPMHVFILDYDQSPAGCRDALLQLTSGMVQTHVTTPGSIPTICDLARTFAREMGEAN

For the molecule `Cc1cn([C@H]2C[C@H](N=[N+]=[N-])[C@@H](CO)O2)c(=O)[nH]c1=O` [AZT, 3′-azido-3′-deoxythymidine], the Km in [1] (read-out: Km for AZT) amounted to 1700 nM; in data set [3] it was 3.55 µM; in data set [6], 22.4 µM. For the same molecule, the “Vmax for AZT” value in [1] was 4.1 mU/mg; in data set [3], 244 mU/mg; in [5] it was 242 mU/mg; in data set [6] it was 1579 mU/mg. Also, the “kcat for AZT” value in data set [1] was determined as 0.028 s⁻¹; in data set [3] it was 0.106 s⁻¹; in [5], 0.104 s⁻¹; in data set [6], 0.681 s⁻¹. Also, the IC50 is 4.07 mM in data set [2] (stable polyclonal cell lines); above 5 mM in [2] (setting [15]); 17 µM in data set [4] (stable polyclonal cell lines); 47 µM in [4] (setting [15]); 2.44 mM in the data set on Glioblastoma U-87 MG (listed under stable polyclonal cell lines); 4.47 mM in the data set with Glioblastoma U-87 MG (listed under transient polyclonal cell lines). Also, the IC50 is 71.9 µM in data set [7] (stable polyclonal cell lines); 97 µM in [7] (setting [15]); 132 µM in data set [8] (stable polyclonal cell lines, cells transduced with PZG56 construct); 25.1 µM in data set [8] (stable polyclonal cell lines, cells transduced with PZG59 construct); 303 µM in data set [8] (transient polyclonal cell lines, cells transduced with PZG56 construct); 26 µM in [8] (transient polyclonal cell lines, cells transduced with PZG59 construct). Besides, the IC50 is 2.58 mM in [9] (stable polyclonal cell lines) and above 5 mM in data set [9] (setting [15]).
On to `Cc1cn([C@H]2C[C@H](O)[C@@H](CO)O2)c(=O)[nH]c1=O` [Thd, thymidine], for which the Km in [10] (read-out: Km for Thd) is 85 µM. Moreover, the “Vmax for Thd” value is 452 mU/mg in data set [10] and 165 mU/mg in data set [11]. Moreover, the figures for the “kcat for Thd” value in data set [10] and in data set [11] were 0.2 s⁻¹ and 0.071 s⁻¹, respectively.
Consider “HSV1-TK: human Herpes simplex virus type 1 thymidine kinase, control; in Table 4 expressed from the pLCXSN vector, in Example 6 purified enzyme”, for which, in data set [12], the “degree of phosphorylation of AZT-monophosphate, lower than the thymidine substrate” value is reported as 10 fold. Besides, the “phosphorylation of AZT-monophosphate” value in [12] (0 to 120 minutes) is reported as “phosphorylates both substrates”. The “phosphorylation of TMP to TDP” value in data set [13] is recorded as “phosphorylates both substrates”.

B1: rTOM-TK1: purified recombinant tomato (Lycopersicum esculentum) thymidine kinase, SEQ ID NO: 4 (protein, listed as Lycopersicon esculentum)
chain: MAFSSSARNPVDLRNGSKNSFCPVGEIHVIVGPMFAGKTTALLRRVNLESNDGRNVVLIKSSKDARYAVDAVVTHDGTRFPCWSLPDLSSFKQRFGKDAYEKVDVIGIDEAQFFGDLYEFCCNAADFDGKIIVVAGLDGDYLRKSFGSVLDIIPLADTVTKLTARCELCNRRAFFTFRKTNETETELIGGADIYMPVCRQHYVNGQSVNESAKMVLESHKVSNELILESPLVDP
Regarding B1, the “ratio [kcat/Km (Thd)]/[kcat/Km (AZT)]” value in data set [14] is 1.07.

B2: rAT-TK1a: purified recombinant Arabidopsis thaliana thymidine kinase TK1a, SEQ ID NO: 9 (protein, listed as Arabidopsis thaliana)
chain: MATLKASFLIKTLDSDVTGDFLSDLERRGSGAVHVIMGPMFSGKSTSLLRRIKSEISDGRSVAMLKSSKDTRYAKDSVVTHDGIGFPCWALPDLMSFPEKFGLDAYNKLDVIGIDEAQFFGDLYEFCCKVADDDGKIVIVAGLDGDYLRRSFGAVLDIIPIADSVTKLTARCEVCGHKAFFTLRKNCDTRTELIGGADVYMPVCRKHYITNHIVIKASKKVLEDSDKARAESCVAATI
For B2, the “ratio [kcat/Km (Thd)]/[kcat/Km (AZT)]” value in data set [14] was 0.08.
